For one experiment, the system named is ASIC. Briefly: TEVC recordings, ASIC1-containing channel not specified. It is filed as cell-based, rat. The conditions noted are these: channel and pH not given; for Hill coefficient: Hill equation fit. The method, then:
Whole-cell ASIC currents were measured using the two-electrode voltage clamp (TEVC) method with a GeneClamp 500 amplifier (Axon Instruments, Union City, NJ, USA). The holding potential maintained at –50 mV. Glass microelectrodes (0.5–2.5 MΩ) were filled with 3 M KCl solution, and ND96 (pH 7.4) was used as the external bath solution. ASIC currents were activated by rapidly switching the external solution from ND96 to either ND96 containing 10 mM MOPS (pH 6.7) or ND96 containing 10 mM MES (pH 5.5). Solution exchange was controlled using a custom-built computer-driven valve system. Data were filtered at 10 Hz and digitized at 100 Hz using an L780M ADC (LCard, Moscow, Russia). Peptides Mamb and Mamb-AL were applied for 30 s at pH 7.4 prior to acid stimulation of the channels.
Electrophysiological and behavioral data were analyzed using OriginPro 8.6.0 (OriginLab, Washington, DC, USA). […] The rate of current decay was fitted using a single exponential decay function: F(x) = A*eˆ(−x/τdes) + A0, where A0 is the minimal current response and τdes is the decay constant. Statistical significance between the Mamb and Mamb-AL groups was determined using an unpaired t-test. Data are presented as mean ± SEM.

The test system of experiment [1] is acetic acid-induced writhes. In words: Acetic acid-induced writhing pain test. The following applies: for decrease in number of writhes: 90 min before i.p. 0.6% acetic acid, 15 min, n = 8, vs saline control (41 ± 8 writhes); for number of writhes (result in words): 0.01 and 0.1 mg/kg, 90 min prior to testing. The format is in vivo, male ICR mice. The source says:
ASIC channels play a critical role in the perception of acid-induced pain [8, 38]. As effective inhibitors of ASIC1-containing channels, Mamb and Mamb-AL could serve as potential therapeutics for this type of pathology. To evaluate this hypothesis, we employed the acetic acid-induced writhing test as an in vivo model of acute pain. In this model, intraperitoneal administration of 0.6% acetic acid provokes a stereotypical behavior in mice characterized by abdominal contractions (acetic acid-induced writhes).
Figure 5 Analgesic effect of peptides Mamb and Mamb-AL in an acute pain model. Peptides were administered intramuscularly 90 min before testing. Their efficacy was assessed using the acetic acid-induced writhing test, where the number of writhes was counted after intraperitoneal administration of 0.6% acetic acid. Results are presented as mean ± SD (n = 8 for each group). Statistical analysis was performed using one-way ANOVA followed by Dunnett’s post hoc test. * p< 0.05, ** p< 0.01, *** p< 0.005, **** p< 0.001 indicate significant differences compared with the control group, and ns indicates no significant difference.
The number of writhes in the control group treated with saline was 41 ± 8. Administration of wild-type peptide at doses of 0.01 and 0.1 mg/kg decreased the number of writhes by approximately 29% and 27%, respectively.
Adult (8–10 weeks) male ICR mice (25–30 g, Animal Breeding Facility Branch of the Shemyakin–Ovchinnikov Institute of Bioorganic Chemistry, Russian Academy of Sciences, Pushchino, Russia) were housed in Type 3 standard polycarbonate cages (820 cm^2) with LIGNOCEL BK 8/15 bedding (JRS, Rosenberg, Germany) under controlled conditions (23 ± 2 °C, 12h light–dark cycle) with ad libitum access to food and water. Test substances were dissolved in saline and administered intramuscularly 90 min before testing. The visceral pain assay was performed as described by. Distinct groups (n = 8 for each group) of mice were administered with 0.6% acetic acid in saline intraperitoneally (i.p.). Writhing behavior was recorded for 15 min after the mice were placed in transparent glass cylinders. A blinded observer assessed the responses. No formal power analysis was performed prior to the experiments, as the effect size and variability of the peptide treatment were unknown. However, because the initial results were highly significant, no additional animals were used. No animals were excluded from the analysis. Peptides (Mamb and Mamb-AL) were compared with a saline control group using analysis of variance (ANOVA) with post hoc Dunnett’s test. Data are presented as mean ± standard deviation (SD).

In experiment [2] the test system is heteromeric rat ASIC1a/3 channels (rASIC1a/3). In words: TEVC recordings, heteromeric rASIC1a/3. The format is cell-based. The conditions noted are these: for inhibition of rASIC1a/3: 100 nM, pH 5.5 stimulus, conditioning pH 7.4, % of control currents, n = 5, p < 0.05 Mamb-AL vs Mamb, unpaired t-test. The source says: Figure 4 The inhibitory effect of Mamb-AL on other ASIC1-containing channels exceeds that of Mamb. (A,C) Representative current traces showing the effects of various concentrations of Mamb (left panels) and Mamb-AL (right panels) on homomeric rat ASIC1b (rASIC1b) (A) and heteromeric rat ASIC1a/3 (rASIC1a/3) channels (C). Currents were evoked by a pH 5.5 stimulus following a conditioning pH of 7.4, with peptides applied for 30 s prior to the pH stimulus. (B) Dose–response curves for the inhibitory effects of Mamb and Mamb-AL on rASIC1b. Each data point represents measurements from 5 to 7 cells. (D) Bar graph quantifying the inhibitory effects of Mamb and Mamb-AL on rASIC1a/3, shown as a percentage of the corresponding control currents (n = 5). Data are presented as mean ± SEM; * p< 0.05, unpaired t-test. […] Data are shown as mean ± SEM; ns indicates no significant difference vs. control (dotted horizontal line), paired t-test.
Female X.laevis frogs were anesthetized with 0.17% ethyl 3-amino-benzoate methane sulfonate (MS222). A small ovarian section was surgically removed via an abdominal incision and placed in ND96 medium (96 mM NaCl, 2 mM KCl, 1.8 mM CaCl2, 1 mM MgCl2, and 5 mM HEPES, pH 7.4, adjusted with NaOH). […] Each animal underwent surgeries at intervals of no less than three months. Connective tissue and follicular sheaths were removed by incubating ovarian tissue in calcium-free ND96 medium containing collagenase (1 mg/mL) for 2 h at 21 °C. Healthy, mature stage IV and V oocytes were selected and stored in ND96 medium. […]
Whole-cell ASIC currents were measured using the two-electrode voltage clamp (TEVC) method with a GeneClamp 500 amplifier (Axon Instruments, Union City, NJ, USA). […]
Electrophysiological and behavioral data were analyzed using OriginPro 8.6.0 (OriginLab, Washington, DC, USA). […] Statistical significance between the Mamb and Mamb-AL groups was determined using an unpaired t-test. […]

Bridges are numbered along the chain shown (N, C = ends). Where no end group is shown, it is not given here.

On to “LKCFQHGKVVTCHRDMKFCYHNTGMPFRNLKLILQGCSSSCSETENNKCCSTDRCNK (disulfide 3-19, 12-37, 41-49, 50-55 (inferred)) [Mamb]”, for which the Hill coefficient in the experiment on ASIC turned out to be 1.54 ± 0.03. Moreover, the results for the “decrease in number of writhes” value in experiment [1] (0.01 mg/kg intramuscular) and in experiment [1] (0.1 mg/kg intramuscular) were “approximately 29%” and approximately 27%, respectively. For the same sequence, the “number of writhes (result in words)” value in experiment [1] is listed as “significantly reduced the number of writhes”. In experiment [2], the “inhibition of rASIC1a/3” value is reported as 13%.
The sequence “LKCYQHGKVVTCHRDAKFCYHNTGLPFRNLKLILQGCSSSCSETENNKCCSTDRCNK (disulfide 3-19, 12-37, 41-49, 50-55 (inferred)) [Mamb-AL]” had a Hill coefficient in the experiment on ASIC of 1.4 ± 0.1. Moreover, the “maximum inhibition (in words)” value with ASIC (compared with wild-type peptide) is “unable to fully block channel activity, leading to a reduced maximum inhibition rate”. The results for the “decrease in number of writhes” value in experiment [1] (0.01 mg/kg intramuscular) and in experiment [1] (0.1 mg/kg intramuscular) were ~ 41% and ~ 34%, respectively. For the same sequence, the “analgesic effect relative to wild-type Mamb” value in experiment [1] (0.01 and 0.1 mg/kg intramuscular) was “trend toward a stronger analgesic effect than the wild-type Mamb”. Moreover, the “number of writhes (result in words)” value in experiment [1] is given as “significantly reduced the number of writhes”. In experiment [2], the “inhibition of rASIC1a/3” value is reported as 32%. Moreover, the “increase in inhibition of heteromeric ASIC1a/3 channels” value in experiment [2] (compared with Mamb) is “two-fold increase”.

The term Hill coefficient denotes the slope factor of the fitted curve.

The values are drawn from publication PMC11946789, “Two Amino Acid Substitutions Improve the Pharmacological Profile of the Snake Venom Peptide Mambalgin” (Toxins, 2025).
